Results taken from the supplement of paper PMC10307832.

Key:
Test in all cases: relative viability (nuclei count vs DMSO), 5 days (fraction); higher = more cells survive
[1] = compound: CCOC1=CC=CC=C1N=NC2=C(NN(C2=O)C3=NC(=CS3)C4=CC=CC=C4)C [BAM7] + CS(=O)(=O)N1CCN(Cc2cc3nc(-c4cccc5[nH]ncc45)nc(N4CCOCC4)c3s2)CC1 [Pictilisib] (partner 1 µM)
Outline: (§1)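 A single step with final 0.05% Triton X-100, 1% formaldehyde and 1 ug/ml Hoechst fixed the cells and stained nuclei 5 days after treatment. Lung cancer cell lines in 1536-well plates had been treated by pin tool the day after seeding with one drug alone or a fixed anchor-drug dose plus five library-drug doses (not always all listed) in √10 steps, and nuclei were counted on 4× images. Relative viability is the ratio of nuclei in treated wells to nuclei in vehicle wells, taken as the median of duplicate plates.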

[2] = compound: CCOC1=CC=CC=C1N=NC2=C(NN(C2=O)C3=NC(=CS3)C4=CC=CC=C4)C [BAM7] + CS(=O)(=O)CCNCc1ccc(-c2ccc3ncnc(Nc4ccc(OCc5cccc(F)c5)c(Cl)c4)c3c2)o1 [Lapatinib] (partner 2 µM)
Outline: as §1

[3] = compound: CCn1c(-c2nonc2N)nc2c(C#CC(C)(C)O)ncc(OC[C@H]3CCCNC3)c21 + Cc1nc(NC(=O)N2CCC[C@H]2C(N)=O)sc1-c1ccnc(C(C)(C)C(F)(F)F)c1 [Alpelisib] (partner 2 µM)
Outline: as §1

[4] = compound: CCn1c(-c2nonc2N)nc2c(C#CC(C)(C)O)ncc(OC[C@H]3CCCNC3)c21 + CS(=O)(=O)CCNCc1ccc(-c2ccc3ncnc(Nc4ccc(OCc5cccc(F)c5)c(Cl)c4)c3c2)o1 [Lapatinib] (partner 2 µM)
Outline: as §1

Cell Line | relative viability ([1]; first compound 0.5 µM) | relative viability ([1]; first compound 5 µM) | relative viability ([1]; first compound 15.81 µM) | relative viability ([1]; first compound 50 µM) | relative viability ([2]; first compound 0.5 µM) | relative viability ([2]; first compound 5 µM) | relative viability ([2]; first compound 15.81 µM) | relative viability ([2]; first compound 50 µM) | relative viability ([3]; first compound 0.01 µM) | relative viability ([3]; first compound 0.03162 µM) | relative viability ([3]; first compound 0.1 µM) | relative viability ([3]; first compound 0.3162 µM) | relative viability ([3]; first compound 1 µM) | relative viability ([4]; first compound 0.01 µM) | relative viability ([4]; first compound 0.03162 µM) | relative viability ([4]; first compound 0.1 µM) | relative viability ([4]; first compound 0.3162 µM) | relative viability ([4]; first compound 1 µM)
NCI-H23 | 0.55 | 0.52 | 0.499 | 0.542 | 1.48 | 1.1 | 0.997 | 1.26 | 0.605 | 0.717 | 0.686 | 0.528 | 0.588 | 1.07 | 1.05 | 1.14 | 1.17 | 0.776
HCC-366 | 0.163 | 0.163 | 0.141 | 0.0939 | 1.09 | 1.1 | 1.03 | 0.984 | 0.362 | 0.427 | 0.293 | 0.475 | 0.386 | 0.967 | 1.02 | 0.953 | 1.03 | 1.09
EMC-BAC-2 | 0.521 | 0.542 | 0.595 | 0.559 | 0.943 | 0.936 | 0.962 | 0.968 | 0.756 | 0.73 | 0.7 | 0.759 | 0.784 | 0.871 | 0.83 | 0.866 | 0.88 | 0.938
NCI-H2405 | 0.438 | 0.557 | 0.449 | 0.538 | 1.1 | 1.26 | 1.12 | 1.1 | 0.839 | 0.782 |  | 0.749 | 0.855 | 1.11 | 1.06 |  | 1.01 | 1.02
NCI-H358 | 0.296 | 0.366 | 0.327 | 0.359 | 0.46 | 0.522 | 0.479 | 0.568 | 0.896 | 0.784 | 0.787 | 0.687 | 0.701 | 0.453 | 0.485 | 0.449 | 0.4 | 0.398
NCI-H1944 | 0.344 | 0.384 | 0.332 | 0.346 | 0.894 | 0.998 | 0.842 | 0.954 | 0.886 | 0.759 | 0.844 | 0.804 | 0.777 | 0.767 | 0.825 | 0.751 | 0.773 | 0.819
EPLC-272H | 0.358 | 0.327 | 0.323 | 0.347 | 0.879 | 0.924 | 0.94 | 0.963 | 0.962 | 1.02 | 0.989 | 0.858 | 0.956 | 0.905 | 0.998 | 0.907 | 0.788 | 0.909
EBC-1 | 0.359 | 0.375 | 0.328 | 0.307 | 0.203 | 0.248 | 0.233 | 0.251 | 0.822 | 0.973 | 0.763 | 0.62 | 0.628 | 0.219 | 0.197 | 0.213 | 0.236 | 0.227
NCI-H1915 | 1.01 | 1.15 | 0.898 | 1.04 | 1.02 | 1.09 | 0.911 | 1.04 | 1.06 | 1.06 | 1.02 | 1.04 | 1.08 | 0.981 | 0.889 | 0.956 | 0.927 | 0.973
NCI-H596 | 0.372 | 0.455 | 0.399 | 0.35 | 0.984 | 1.14 | 1.01 | 1.12 | 0.365 | 0.522 | 0.482 | 0.487 | 0.503 | 0.935 | 0.954 | 0.92 | 0.901 | 0.986
NCI-H322M | 0.53 | 0.623 | 0.549 | 0.578 | 0.659 | 0.593 | 0.577 | 0.572 | 0.868 | 0.765 | 0.121 | 0.853 | 0.813 | 0.562 | 0.608 | 0.394 | 0.614 | 0.524
NCI-H1299 | 0.675 | 0.779 | 0.782 | 0.824 | 0.835 | 1.01 | 0.954 | 0.964 | 1.05 | 1.06 | 1.05 | 1.03 | 0.968 | 0.927 | 0.967 | 0.998 | 0.947 | 0.982
NCI-H2228 | 0.407 | 0.429 | 0.34 | 0.429 | 1.31 | 1.19 | 1.05 | 1.1 | 0.68 | 0.854 | 0.622 | 0.651 | 0.569 | 1.27 | 1.09 | 1.02 | 0.755 | 0.729
IA-LM | 0.356 | 0.306 | 0.37 | 0.392 | 0.766 | 0.816 | 0.784 | 0.748 | 0.728 | 0.733 | 0.987 | 0.654 | 0.613 | 0.713 | 0.922 | 0.887 | 0.532 | 0.289
NCI-H647 | 0.49 | 0.511 | 0.478 | 0.541 | 1.06 | 0.926 | 1.01 | 1.06 | 1.2 | 1.17 | 1.02 | 1.03 | 1.23 | 0.874 | 1.23 | 1.08 | 0.788 | 0.981
SK-MES-1 | 0.432 | 0.455 | 0.369 | 0.358 | 0.488 | 0.438 | 0.423 | 0.505 | 0.87 | 0.916 | 0.856 | 1.11 | 0.953 | 0.46 | 0.425 | 0.507 | 0.424 | 0.406
NCI-H2170 | 0.268 | 0.3 | 0.271 | 0.314 | 0.264 | 0.285 | 0.258 | 0.287 | 0.837 | 0.833 | 0.824 | 0.721 | 0.759 | 0.283 | 0.254 | 0.266 | 0.261 | 0.302
NCI-H2085 | 0.388 | 0.43 | 0.365 | 0.439 | 0.764 | 0.612 | 0.74 | 0.881 | 0.974 | 0.866 | 0.988 | 0.865 | 0.84 | 0.8 | 0.7 | 0.601 | 0.574 | 0.573
SW 1573 | 0.583 | 0.48 | 0.457 | 0.483 | 1.17 | 1.23 | 1.09 | 1.33 | 0.717 | 0.783 | 0.656 | 0.73 | 0.734 | 1.1 | 1 | 1.02 | 0.869 | 0.946
NCI-H727 | 0.414 | 0.545 | 0.387 | 0.31 | 0.923 | 1.1 | 0.788 | 0.834 | 0.576 | 0.527 | 0.714 | 0.608 | 0.479 | 0.796 | 0.856 | 0.593 | 0.762 | 0.66
LOU-NH91 | 0.54 | 0.555 | 0.524 | 0.532 | 0.749 | 0.822 | 0.767 | 0.819 | 0.751 | 0.795 | 0.736 | 0.706 | 0.732 | 0.802 | 0.681 | 0.717 | 0.652 | 0.618
NCI-H3122 | 0.75 | 0.689 | 0.685 | 0.694 | 1.09 | 1.04 | 1.04 | 1.03 | 0.869 | 0.71 | 0.795 | 0.798 | 0.756 | 0.959 | 1.04 | 1.05 | 1.13 | 1
NCI-H460 | 0.439 | 0.485 | 0.411 | 0.381 | 0.904 | 1.13 | 0.953 | 1.03 | 0.439 | 0.496 | 0.477 | 0.447 | 0.437 | 0.949 | 1.14 | 1.02 | 0.862 | 0.775
NCI-H650 | 0.893 | 1.03 | 0.896 | 0.77 | 0.787 | 0.92 | 0.842 | 1.13 | 1.1 | 1.21 | 1.02 | 1.04 | 1.24 | 0.733 | 0.838 | 0.783 | 0.753 | 0.741
NCI-H661 | 0.406 | 0.426 | 0.452 | 0.423 | 0.704 | 0.494 | 0.41 | 0.54 | 0.562 | 0.553 | 0.603 | 0.635 | 0.576 | 0.505 | 0.539 | 0.249 | 0.502 | 0.489
NCI-H1793 | 0.445 | 0.3 | 0.317 | 0.358 | 0.8 | 0.636 | 0.64 | 0.93 | 0.815 | 0.812 | 0.508 | 0.592 | 0.64 | 0.75 | 0.699 | 0.577 | 0.548 | 0.939
NCI-H1734 | 0.477 | 0.496 | 0.451 | 0.482 | 1.1 | 1.23 | 0.974 | 1.11 | 0.652 | 0.624 | 0.631 | 0.655 | 0.658 | 1.01 | 1.02 | 0.896 | 0.885 | 0.825
LXF-289 | 0.892 | 0.844 | 0.766 | 0.786 | 0.947 | 0.951 | 0.913 | 0.851 | 1.04 | 1.02 | 1.01 | 0.983 | 1.04 | 0.921 | 0.891 | 0.934 | 0.871 | 0.88
H3255 | 0.544 | 0.652 | 0.568 | 0.579 | 0.251 | 0.242 | 0.247 | 0.278 | 0.659 | 0.705 | 0.692 | 0.562 | 0.607 | 0.259 | 0.202 | 0.217 | 0.276 | 0.228
